Results: US8846719B2, “Isoxazolo-pyridine derivatives” (Roche Palo Alto LLC, priority 2007, dated 2014)

Target: human GABA A receptor α5β3γ2 (Homo sapiens (Human), UniProt P18507+P31644)
Assay: [3H]flumazenil competition binding assay, human GABA A α5β3γ2 receptors expressed in HEK293 cells
Conditions: human receptor; displacement of [3H]flumazenil (0.5 nM); means of two determinations; read-out: hKi GABAAa5
Method in brief: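 Ki values, each the mean of two runs, derive from displacement of [3H]flumazenil from human α5β3γ2 GABA A receptors transiently expressed in HEK293 membranes. Binding ran 1 h at 4° C in Krebs-tris, pH 7.5, before filter harvest and scintillation counting.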

| Ki [nM] | SMILES |
| --- | --- |
| 43.5 | Cc1onc(-c2ccccc2)c1COc1ccc(C(=O)NC2CCCN(C(=O)OC(C)(C)C)C2)cn1 (centres unmarked) [Example 38, 3-{[6-(5-Methyl-3-phenyl-isoxazol-4-ylmethoxy)-pyridine-3-carbonyl]-amino}-piperidine-1-carboxylic acid tert-butyl ester] |
| 3.8 | Cc1onc(-c2ccc(Cl)cn2)c1COc1ccc(C(=O)O)cn1 [Example 304, 6-[3-(5-Chloro-pyridin-2-yl)-5-methyl-isoxazol-4-ylmethoxy]-nicotinic acid] |
| 19.2 | Cc1onc(-c2ccccc2)c1COc1ccc(NC(=O)C(C)C)cn1 [Example 181, N-[6-(5-Methyl-3-phenyl-isoxazol-4-ylmethoxy)-pyridin-3-yl]-isobutyramide] |
| 53.2 | COC(=O)c1ccc(OCc2c(-c3cccnc3)noc2C)nc1 [Example 154, 6-(5-Methyl-3-pyridin-3-yl-isoxazol-4-ylmethoxy)-nicotinic acid methyl ester] |
| 2.3 | Cc1onc(-c2cccc(F)c2)c1COc1ccc(C(=O)NC(C)C)cn1 [Example 91, 6-[3-(3-Fluoro-phenyl)-5-methyl-isoxazol-4-ylmethoxy]-N-isopropyl-nicotinamide] |
| 7.4 | Cc1onc(-c2ccc(F)cc2)c1CNc1ccc(C(=O)NC2CC2)cn1 [Example 176, N-Cyclopropyl-6-{[3-(4-fluoro-phenyl)-5-methyl-isoxazol-4-ylmethyl]-amino}-nicotinamide] |
| 4.7 | Cc1onc(-c2ccc(F)c(F)c2)c1COc1ccc(C(=O)NC(C)C)cn1 [Example 126, 6-[3-(3,4-Difluoro-phenyl)-5-methyl-isoxazol-4-ylmethoxy]-N-isopropyl-nicotinamide] |
| 33.3 | CCNC(=O)c1ccc(OCc2c(-c3ccc(F)cc3)noc2C(F)(F)F)nc1 [Example 138, N-Ethyl-6-[3-(4-fluoro-phenyl)-5-trifluoromethyl-isoxazol-4-ylmethoxy]-nicotinamide] |
| 4.5 | Cc1onc(-c2ccncc2)c1COc1ccc(C(=O)NC(C)C)cn1 [Example 149, N-Isopropyl-6-(5-methyl-3-pyridin-4-yl-isoxazol-4-ylmethoxy)-nicotinamide] |
| 19.4 | O=C(NC1CCS(=O)(=O)C1)c1ccc(OCc2conc2-c2ccc(F)cc2)nc1 (centres unmarked) [Example 340, N-(1,1-Dioxo-tetrahydro-1,6-thiophen-3-yl)-6-[3-(4-fluoro-phenyl)-isoxazol-4-ylmethoxy]-nicotinamide] |
| 30.8 | CCNC(=O)c1ccc(OCc2c(-c3ccccc3)noc2C(F)(F)F)nc1 [Example 130, N-Ethyl-6-(3-phenyl-5-trifluoromethyl-isoxazol-4-ylmethoxy)-nicotinamide] |
| 4.5 | COC(=O)c1ccc(OCc2c(-c3ccc(Cl)cc3)noc2C)nc1 [Example 115, 6-[3-(4-Chloro-phenyl)-5-methyl-isoxazol-4-ylmethoxy]-nicotinic acid methyl ester] |
| 15.1 | O=C(NCC(F)(F)F)c1ccc(OCc2conc2-c2ccc(F)cc2)nc1 [Example 330, 6-[3-(4-Fluoro-phenyl)-isoxazol-4-ylmethoxy]-N-(2,2,2-trifluoro-ethyl)-nicotinamide] |
| 1.6 | Cc1onc(-c2ccccn2)c1COc1ccc(C(=O)NC2CC2)cn1 [Example 278, N-Cyclopropyl-6-(5-methyl-3-pyridin-2-yl-isoxazol-4-ylmethoxy)-nicotinamide] |
| 2 | Cc1onc(-c2ccccc2)c1COc1ccc(C(=O)NCC(O)CO)cn1 (centres unmarked) [Example 218, N-(2,3-Dihydroxy-propyl)-6-(5-methyl-3-phenyl-isoxazol-4-ylmethoxy)-nicotinamide] |
| 1.6 | COC(=O)c1ccc(OCc2c(-c3ccc(Cl)cn3)noc2C)nc1 [Example 300, 6-[3-(5-Chloro-pyridin-2-yl)-5-methyl-isoxazol-4-ylmethoxy]-nicotinic acid methyl ester] |
| 22.1 | O=C(NC1CCOCC1)c1ccc(OCc2c(-c3ccccc3)noc2C(F)(F)F)nc1 [Example 135, 6-(3-Phenyl-5-trifluoromethyl-isoxazol-4-ylmethoxy)-N-(tetrahydro-pyran-4-yl)-nicotinamide] |
| 4.8 | CNC(=O)c1ccc(OCc2c(-c3ccncn3)noc2C)nc1 [Example 318, N-Methyl-6-(5-methyl-3-pyrimidin-4-yl-isoxazol-4-ylmethoxy)-nicotinamide] |
| 2.3 | Cc1onc(-c2ccccc2)c1COc1ccc(C(=O)NCC(C)(C)O)cn1 [Example 193, N-(2-Hydroxy-2-methyl-propyl)-6-(5-methyl-3-phenyl-isoxazol-4-ylmethoxy)-nicotinamide] |
| 10.6 | Cc1onc(-c2ccccc2)c1CNc1ccc(C(=O)NC2CC2)cn1 [Example 165, N-Cyclopropyl-6-[(5-methyl-3-phenyl-isoxazol-4-ylmethyl)-amino]-nicotinamide] |
| 17.8 | O=C(NC1CCOCC1)c1ccc(OCc2conc2-c2ccccn2)nc1 [Example 358, 6-(3-Pyridin-2-yl-isoxazol-4-ylmethoxy)-N-(tetrahydro-pyran-4-yl)-nicotinamide] |
| 5.2 | COCCCNC(=O)c1ccc(OCc2c(-c3ccccc3)noc2C)nc1 [Example 15, N-(3-Methoxy-propyl)-6-(5-methyl-3-phenyl-isoxazol-4-ylmethoxy)-nicotinamide] |
| 14.9 | Cc1onc(-c2cccc(F)c2)c1CNc1ccc(C(=O)NC2CCOCC2)cn1 [Example 171, 6-{[3-(3-Fluoro-phenyl)-5-methyl-isoxazol-4-ylmethyl]-amino}-N-(tetrahydro-pyran-4-yl)-nicotinamide] |
| 24.4 | Cc1onc(-c2ccccc2)c1COc1ncc(C(=O)NC2CCOCC2)cc1Br [Example 65, 5-Bromo-6-(5-methyl-3-phenyl-isoxazol-4-ylmethoxy)-N-(tetrahydro-pyran-4-yl)-nicotinamide] |
| 5.9 | Cc1onc(-c2ccccc2)c1CNc1ccc(C(=O)NC(C)C)cn1 [Example 164, N-Isopropyl-6-[(5-methyl-3-phenyl-isoxazol-4-ylmethyl)-amino]-nicotinamide] |
| 57.8 | O=C(NCC(F)(F)F)c1ccc(OCc2c(-c3ccc(F)cc3)noc2C(F)(F)F)nc1 [Example 140, 6-[3-(4-Fluoro-phenyl)-5-trifluoromethyl-isoxazol-4-ylmethoxy]-N-(2,2,2-trifluoro-ethyl)-nicotinamide] |
| 37.3 | Cc1onc(-c2ccccc2)c1CNc1ccc(C(=O)NCCN2CCCC2=O)cn1 [Example 163, 6-[(5-Methyl-3-phenyl-isoxazol-4-ylmethyl)-amino]-N-[2-(2-oxo-pyrrolidin-1-yl)-ethyl]-nicotinamide] |
| 50.8 | Cc1onc(-c2ccccc2)c1COc1ccc(C(=O)N2CCCCC2)cn1 [Example 51, [6-(5-Methyl-3-phenyl-isoxazol-4-ylmethoxy)-pyridin-3-yl]-piperidin-1-yl-methanone] |

| SMILES | Ki [nM] |
| --- | --- |
| O=C(NC1CCOCC1)c1ccc(OCc2conc2-c2ccc(F)cn2)nc1 [Example 365, 6-[3-(5-Fluoro-pyridin-2-yl)-isoxazol-4-ylmethoxy]-(tetrahydro-pyran-4-yl)-nicotinamide] | 8 |
| Cc1onc(-c2ccc(Cl)cn2)c1COc1ccc(C(=O)NC2CC2)cn1 [Example 303, 6-[3-(5-Chloro-pyridin-2-yl)-5-methyl-isoxazol-4-ylmethoxy]-cyclopropyl-nicotinamide] | 0.3 |
| Cc1onc(-c2ccc(F)cc2)c1CNc1ccc(C(=O)NC(C)C)cn1 [Example 175, 6-{[3-(4-Fluoro-phenyl)-5-methyl-isoxazol-4-ylmethyl]-amino}-N-isopropyl-nicotinamide] | 3.7 |
| Cc1onc(-c2ccc(Cl)cn2)c1COc1ccc(C(=O)NC2CCOCC2)cn1 [Example 301, 6-[3-(5-Chloro-pyridin-2-yl)-5-methyl-isoxazol-4-ylmethoxy]-(tetrahydro-pyran-4-yl)-nicotinamide] | 0.3 |
| Cc1onc(-c2ccncn2)c1COc1ccc(C(=O)NC(C)(C)CO)cn1 [Example 315, N-(2-Hydroxy-1,1-dimethyl-ethyl)-6-(5-methyl-3-pyrimidin-4-yl-isoxazol-4-ylmethoxy)-nicotinamide] | 8.1 |
| O=C(NC(CO)CO)c1ccc(OCc2conc2-c2ccc(Cl)cc2)nc1 [Example 353, 6-[3-(4-Chloro-phenyl)-isoxazol-4-ylmethoxy]-N-(2-hydroxy-1-hydroxymethyl-ethyl)-nicotinamide] | 5.5 |
| COC(=O)C(=O)Nc1ccc(OCc2c(-c3ccccc3)noc2C)nc1 [Example 180, N-[6-(5-Methyl-3-phenyl-isoxazol-4-ylmethoxy)-pyridin-3-yl]-oxalamic acid methyl ester] | 7.2 |
| Cc1nnc(-c2ccc(OCc3c(-c4ccccc4)noc3C)nc2)[nH]1 [Example 246, 2-(5-Methyl-3-phenyl-isoxazol-4-ylmethoxy)-5-(5-methyl-4H-[1,2,4]triazol-3-yl)-pyridine] | 1.1 |
| CCNC(=O)c1ccc(OCc2conc2-c2ccc(F)cn2)nc1 [Example 371, Ethyl-6-[3-(5-fluoro-pyridin-2-yl)-isoxazol-4-ylmethoxy]-nicotinamide] | 14.1 |
| COC(=O)c1ccc(OCc2c(-c3ccc(F)cc3)noc2C(F)(F)F)nc1 [Example 136, 6-[3-(4-Fluoro-phenyl)-5-trifluoromethyl-isoxazol-4-ylmethoxy]-nicotinic acid methyl ester] | 57 |
| Cc1onc(-c2ccccc2)c1COc1ccc([S+](C)[O-])cn1 (centres unmarked) [Example 248, 5-Methanesulfinyl-2-(5-methyl-3-phenyl-isoxazol-4-ylmethoxy)-pyridine] | 28.1 |
| Cc1onc(-c2ccccc2F)c1COc1ccc(C(=O)NCC(F)(F)C(F)(F)F)cn1 [Example 85, 6-[3-(2-Fluoro-phenyl)-5-methyl-isoxazol-4-ylmethoxy]-N-(2,2,3,3,3-pentafluoro-propyl)-nicotinamide] | 9.8 |
| Cc1onc(-c2ccccc2)c1COc1ccc(C(=O)NC2CCCN(CC(=O)NCC(F)(F)F)C2)cn1 (centres unmarked) [Example 44, 6-(5-Methyl-3-phenyl-isoxazol-4-ylmethoxy)-N-{1-[(2,2,2-trifluoro-ethylcarbamoyl)-methyl]-piperidin-3-yl}-nicotinamide] | 10.1 |
